Results from PMC8915595, “Revisiting the application of Immobilized Artificial Membrane (IAM) chromatography to estimate in vivo distribution properties of drug discovery compounds based on the model of marketed drugs” (ADMET & DMPK, 2020).

Tests used:
[1] = molecular target: T1, human serum albumin (HSA) (Homo sapiens, UniProt P02768); conditions: cited from earlier work
[2] = human
[3] = IAM chromatography on new IAM.PC.DD2 columns (gradient HPLC, CHI (IAM)); format: physicochemical; design: key to CHI (IAM) “new” / P20511-014-3 CHI (IAM): CHI (IAM) from retention times calibrated to predefined CHI standards; conditions: for P20511-014-3 CHI (IAM): new IAM.PC.DD2 column batch P20511-014-3, pH 7.4; for R20511-014-3 CHI (IAM): new IAM.PC.DD2 column batch R20511-014-3, pH 7.4; for outlier in correlation of reference CHI (IAM) with CHI (IAM) on column R20511-014-3: lower CHI (IAM) on new batches, outlier if difference greater than 7.2 CHI IAM units; for CHI (IAM) deviation between reference and new IAM.PC.DD2 columns / CHI (IAM) “new”: system suitability test compounds; for CHI (IAM) “new”: new IAM.PC.DD2 columns, pH 7.4
Method: The IAM binding was measured using IAM.PC.DD2 HPLC columns (Regis Technologies, Inc., IL, USA) with dimensions of 100 x 4.6 mm, particle size 10 μm with 300 Å pore size.
Two batches of IAM.PC.DD2 columns were studied (R20511-014-3 and P20511-014-3) that had been prepared using the new batches of silica support.
The retention times were standardized using the IAM calibration mixture, containing octanophenone, heptanophenone, hexanophenone, valerophenone, butyrophenone, propiophenone, acetophenone, acetanilide and paracetamol. The retention times of the compounds were plotted against the isocratically determined and predefined CHI (IAM) values listed in Table 1. The slope and intercept of the obtained straight line was used to calculate the CHI IAM values of new compounds.

[4] = molecular target: T1, human serum albumin (HSA); test: Protein binding on chemically bonded HSA column (Chiralpak-HSA); conditions: remeasured in this study, pH 7.4
Method: Mobile phase A was 50 mM ammonium acetate adjusted to pH 7.4 and mobile phase B was 2-propanol. The flow rate was 1.5 mL/min and the run time was 6 min. The 2-propanol gradient was applied from 0 to 35% from 0 to 3.00 min and kept at 35% until 4.00 min.

[5] = reference CHI (IAM), old columns; cited from earlier work

T1 sequence (P02768 25-609): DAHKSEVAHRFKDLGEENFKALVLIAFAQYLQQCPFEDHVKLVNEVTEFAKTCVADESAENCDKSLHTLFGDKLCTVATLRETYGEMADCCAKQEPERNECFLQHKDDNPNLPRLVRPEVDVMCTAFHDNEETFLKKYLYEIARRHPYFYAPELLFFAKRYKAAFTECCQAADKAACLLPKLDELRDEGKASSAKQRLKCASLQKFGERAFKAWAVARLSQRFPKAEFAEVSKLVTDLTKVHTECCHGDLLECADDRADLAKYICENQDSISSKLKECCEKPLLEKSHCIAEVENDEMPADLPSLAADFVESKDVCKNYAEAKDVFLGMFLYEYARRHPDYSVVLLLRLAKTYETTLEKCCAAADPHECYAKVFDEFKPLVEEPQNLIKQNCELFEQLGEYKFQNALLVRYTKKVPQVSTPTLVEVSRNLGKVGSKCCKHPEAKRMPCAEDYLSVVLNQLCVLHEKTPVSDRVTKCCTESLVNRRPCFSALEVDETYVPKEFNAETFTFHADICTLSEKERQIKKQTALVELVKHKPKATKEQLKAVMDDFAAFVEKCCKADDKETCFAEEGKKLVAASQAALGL

| SMILES | log K HSA from ref [13] [1] | reference log Vdss [2] | P20511-014-3 CHI (IAM) [3] | R20511-014-3 CHI (IAM) [3] | log K HSA [4] | CHI (IAM) from ref [13] [5] | outlier in correlation of reference CHI (IAM) with CHI (IAM) on column R20511-014-3 [3] | CHI (IAM) deviation between reference and new IAM.PC.DD2 columns [3] | CHI (IAM) “new” [3] |
| --- | --- | --- | --- | --- | --- | --- | --- | --- | --- |
| CCn1nc(C(=O)O)c(=O)c2cc3c(cc21)OCO3 [Cinoxacin] | 0.79 | -0.42 | 6.67 | 5.31 | 0.91 | – | – | – | – |
| Cc1c(Cl)cccc1Nc1ccccc1C(=O)O [Tolfenamic Acid] | 2.46 | -0.76 | 41.53 | 40.72 | 6.60 | 36.60 | – | – | – |
| C=CCOc1ccc(CC(=O)O)cc1Cl [Alclofenac] | 5.11 | -1.1 | 21.63 | 20.47 | 5.40 | 17.80 | – | – | – |
| NC(N)=Nc1nc(CSCCC(N)=NS(N)(=O)=O)cs1 [Famotidine] | 1.39 | -0.06 | 16.08 | 16.82 | 3.43 | 15.70 | – | – | – |
| CC(C(=O)O)c1ccc(-c2ccccc2)c(F)c1 (stereo not shown) [Flurbiprofen] | 1.26 | -1.56 | 30.89 | 30.23 | 4.01 | 26.80 | – | – | – |
| COc1cnc(NS(=O)(=O)c2ccc(N)cc2)nc1 [Sulfameter] | 4.09 | -0.61 | 7.09 | 6.92 | 2.44 | 3.70 | – | – | – |
| CC(C)(C)NC(=O)[C@H]1CC[C@H]2[C@@H]3CC[C@H]4NC(=O)C=C[C@]4(C)[C@H]3CC[C@]12C [Finasteride] | 3.62 | 0.3 | 37.17 | 37.15 | 3.55 | – | – | – | – |
| Cc1onc(-c2c(F)cccc2Cl)c1C(=O)N[C@@H]1C(=O)N2[C@@H]1SC(C)(C)[C@@H]2C(=O)O [Floxacillin] | 0.56 | -0.56 | 24.59 | 23.76 | 0.65 | 23.40 | – | – | – |
| C#C[C@]1(O)CC[C@H]2[C@@H]3CCc4cc(O)ccc4[C@H]3CC[C@@]21C [Ethinyl estradiol] | 0.46 | 0.39 | 45.23 | 45.30 | 0.50 | 46.80 | – | – | – |
| CC(O)Cn1cnc2c1c(=O)n(C)c(=O)n2C (stereo not shown) [Proxyphylline] | 1.97 | -0.85 | 10.89 | 10.05 | 3.02 | – | – | – | – |
| Cn1cnc2c1c(=O)[nH]c(=O)n2C [Theobromine] | 4.68 | -0.25 | -3.71 | -3.16 | – | – | – | – | – |
| CCOC(=O)C1=C(C)NC(C)=C(C(=O)OC)C1c1cccc([N+](=O)[O-])c1 (stereo not shown) [Nitrendipine] | 2.35 | 0.16 | 39.19 | 39.06 | 2.70 | 40.50 | – | – | – |
| CC(C)NCC(O)COc1cccc2[nH]ccc12 (stereo not shown) [Pindolol] | 1.81 | 0.85 | 25.31 | 25.69 | 2.40 | 42.00 | outliers | – | – |
| COC1=CC(=O)C[C@@H](C)[C@]12Oc1c(Cl)c(OC)cc(OC)c1C2=O [Griseofulvin] | 0.77 | 0.12 | 30.98 | 31.06 | 0.80 | 33.10 | – | – | – |
| CN(C)CCCN1c2ccccc2Sc2ccc(Cl)cc21 [Chlorpromazine] | 1.18 | 2.15 | 50.94 | 51.54 | 1.27 | – | – | > 5 CHI (IAM) unit | 54.0 |
| CCN1CCCC1CNC(=O)c1cc(S(N)(=O)=O)ccc1OC (stereo not shown) [Sulpiride] | 4.84 | 0.12 | 16.15 | 15.80 | – | 25.50 | outliers | – | – |
| C[C@]12C=CC(=O)C=C1CC[C@@H]1[C@@H]2C(=O)C[C@@]2(C)[C@H]1CC[C@]2(O)C(=O)CO [Prednisone] | 0.62 | 0.05 | 25.13 | 25.25 | 0.42 | – | – | – | – |
| COc1ccc2c(c1)c(CC(=O)O)c(C)n2C(=O)c1ccc(Cl)cc1 [Indomethacin] | – | -0.96 | 33.16 | 32.49 | – | 25.30 | – | very similar | 30.0 |
| COc1ccc(NS(=O)(=O)c2ccc(N)cc2)nn1 [Sulfamethoxypyridazine] | 2.33 | -0.59 | 11.16 | 11.11 | 4.27 | – | – | – | – |
